Measured values from ChEMBL document CHEMBL1132035, “Guanidine-substituted imidazoles as inhibitors of nitric oxide synthase” (Bioorg Med Chem Lett, 1999).

Legend:
Nitric oxide synthase 1 [1] = target: T1, Nitric oxide synthase 1 (Rattus norvegicus, UniProt P29476); assay: Compound was evaluated as nitric oxide producing substrate of rat Neuronal nitric oxide synthase using the Griess assay; NA means Not active
Nitric oxide synthase 3 [2] = target: T2, Nitric oxide synthase 3 (Bos taurus, UniProt P29473); assay: Compound was evaluated as nitric oxide producing substrate of bovine Endothelial nitric oxide synthase using the Griess assay; NA means Not active
T2 sequence (P29473 whole entry): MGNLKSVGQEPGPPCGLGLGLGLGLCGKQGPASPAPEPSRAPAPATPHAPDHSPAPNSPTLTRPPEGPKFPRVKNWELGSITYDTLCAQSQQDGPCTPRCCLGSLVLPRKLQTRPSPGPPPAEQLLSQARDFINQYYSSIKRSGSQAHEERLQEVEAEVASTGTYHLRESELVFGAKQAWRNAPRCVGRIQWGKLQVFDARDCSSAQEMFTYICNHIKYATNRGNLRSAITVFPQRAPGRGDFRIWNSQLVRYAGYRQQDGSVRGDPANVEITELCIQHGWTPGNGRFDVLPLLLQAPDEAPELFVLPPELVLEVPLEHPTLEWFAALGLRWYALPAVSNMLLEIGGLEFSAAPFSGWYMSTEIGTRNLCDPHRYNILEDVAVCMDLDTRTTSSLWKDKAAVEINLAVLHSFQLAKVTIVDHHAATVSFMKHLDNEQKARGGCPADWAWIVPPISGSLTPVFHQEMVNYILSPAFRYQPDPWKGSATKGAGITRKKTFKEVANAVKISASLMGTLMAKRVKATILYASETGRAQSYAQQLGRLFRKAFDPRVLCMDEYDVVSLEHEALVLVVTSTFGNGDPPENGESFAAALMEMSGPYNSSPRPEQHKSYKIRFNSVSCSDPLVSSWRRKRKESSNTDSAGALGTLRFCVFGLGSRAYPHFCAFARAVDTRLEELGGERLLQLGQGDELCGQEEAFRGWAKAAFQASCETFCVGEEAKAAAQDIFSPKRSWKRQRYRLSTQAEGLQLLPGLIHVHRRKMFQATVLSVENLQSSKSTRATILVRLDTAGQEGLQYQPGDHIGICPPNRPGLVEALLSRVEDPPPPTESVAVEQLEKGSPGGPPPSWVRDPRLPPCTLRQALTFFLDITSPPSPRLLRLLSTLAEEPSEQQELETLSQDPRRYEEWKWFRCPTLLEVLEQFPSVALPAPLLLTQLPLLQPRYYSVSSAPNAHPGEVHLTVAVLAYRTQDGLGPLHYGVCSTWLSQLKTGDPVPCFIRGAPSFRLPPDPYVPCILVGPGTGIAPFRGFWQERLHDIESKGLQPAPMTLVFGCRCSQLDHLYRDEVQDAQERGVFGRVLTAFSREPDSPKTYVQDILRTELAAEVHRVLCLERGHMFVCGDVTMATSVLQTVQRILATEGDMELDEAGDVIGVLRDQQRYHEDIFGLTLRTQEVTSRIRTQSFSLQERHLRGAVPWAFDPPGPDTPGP

[3] = target: T3, Nitric oxide synthase, inducible (Mus musculus, UniProt P29477); assay: Compound was evaluated as nitric oxide producing substrate of mouse Inducible nitric oxide synthase using the Griess assay; NA means Not active
T3 sequence (P29477 whole entry): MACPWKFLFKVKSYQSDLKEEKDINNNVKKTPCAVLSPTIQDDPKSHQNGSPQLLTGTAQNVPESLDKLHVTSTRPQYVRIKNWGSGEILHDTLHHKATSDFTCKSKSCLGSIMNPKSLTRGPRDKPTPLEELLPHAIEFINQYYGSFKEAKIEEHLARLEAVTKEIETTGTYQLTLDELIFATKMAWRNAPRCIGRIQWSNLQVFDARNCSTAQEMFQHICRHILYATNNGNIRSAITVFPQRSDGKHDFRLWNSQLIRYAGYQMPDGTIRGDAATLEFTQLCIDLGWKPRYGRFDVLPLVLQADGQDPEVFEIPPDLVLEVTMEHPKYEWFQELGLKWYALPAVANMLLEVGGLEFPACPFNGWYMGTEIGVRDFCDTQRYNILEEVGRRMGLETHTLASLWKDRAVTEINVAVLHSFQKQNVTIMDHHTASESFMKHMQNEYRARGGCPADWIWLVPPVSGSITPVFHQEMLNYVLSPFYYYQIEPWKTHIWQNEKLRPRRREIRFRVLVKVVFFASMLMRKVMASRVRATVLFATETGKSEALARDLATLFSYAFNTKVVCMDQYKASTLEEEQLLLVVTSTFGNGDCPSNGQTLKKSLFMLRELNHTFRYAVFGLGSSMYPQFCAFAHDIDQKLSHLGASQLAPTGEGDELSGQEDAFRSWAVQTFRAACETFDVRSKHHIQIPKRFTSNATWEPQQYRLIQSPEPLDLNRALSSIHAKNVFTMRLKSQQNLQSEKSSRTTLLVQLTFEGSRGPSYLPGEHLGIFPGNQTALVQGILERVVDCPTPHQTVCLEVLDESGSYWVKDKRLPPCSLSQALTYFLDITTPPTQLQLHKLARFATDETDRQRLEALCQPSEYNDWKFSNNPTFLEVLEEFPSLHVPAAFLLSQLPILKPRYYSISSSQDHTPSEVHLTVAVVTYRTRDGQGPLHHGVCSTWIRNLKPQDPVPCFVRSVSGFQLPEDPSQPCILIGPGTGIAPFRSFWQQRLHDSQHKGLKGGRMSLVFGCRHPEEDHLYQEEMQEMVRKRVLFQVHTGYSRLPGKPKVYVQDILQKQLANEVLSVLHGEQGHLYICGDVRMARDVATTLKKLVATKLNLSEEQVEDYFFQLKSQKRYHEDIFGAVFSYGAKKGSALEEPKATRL

[4] = target: T3, Nitric oxide synthase, inducible; assay: Inhibition of purified mouse inducible nitric oxide synthase catalyzed [14C]L-citrulline production at a compound concentration of 1 mM in presence of 50 uM L-arginine
Nitric oxide synthase 3 [5] = target: T2, Nitric oxide synthase 3; assay: Inhibition of bovine endothelial nitric oxide synthase catalyzed [14C]L-citrulline production at a compound concentration of 1 mM in presence of 50 uM L-arginine
Nitric oxide synthase 1 [6] = target: T1, Nitric oxide synthase 1; assay: Inhibition of rat neuronal nitric oxide synthase catalyzed [14C]L-citrulline production at a compound concentration of 1 mM in presence of 50 uM L-arginine

T1 sequence (P29476 whole entry): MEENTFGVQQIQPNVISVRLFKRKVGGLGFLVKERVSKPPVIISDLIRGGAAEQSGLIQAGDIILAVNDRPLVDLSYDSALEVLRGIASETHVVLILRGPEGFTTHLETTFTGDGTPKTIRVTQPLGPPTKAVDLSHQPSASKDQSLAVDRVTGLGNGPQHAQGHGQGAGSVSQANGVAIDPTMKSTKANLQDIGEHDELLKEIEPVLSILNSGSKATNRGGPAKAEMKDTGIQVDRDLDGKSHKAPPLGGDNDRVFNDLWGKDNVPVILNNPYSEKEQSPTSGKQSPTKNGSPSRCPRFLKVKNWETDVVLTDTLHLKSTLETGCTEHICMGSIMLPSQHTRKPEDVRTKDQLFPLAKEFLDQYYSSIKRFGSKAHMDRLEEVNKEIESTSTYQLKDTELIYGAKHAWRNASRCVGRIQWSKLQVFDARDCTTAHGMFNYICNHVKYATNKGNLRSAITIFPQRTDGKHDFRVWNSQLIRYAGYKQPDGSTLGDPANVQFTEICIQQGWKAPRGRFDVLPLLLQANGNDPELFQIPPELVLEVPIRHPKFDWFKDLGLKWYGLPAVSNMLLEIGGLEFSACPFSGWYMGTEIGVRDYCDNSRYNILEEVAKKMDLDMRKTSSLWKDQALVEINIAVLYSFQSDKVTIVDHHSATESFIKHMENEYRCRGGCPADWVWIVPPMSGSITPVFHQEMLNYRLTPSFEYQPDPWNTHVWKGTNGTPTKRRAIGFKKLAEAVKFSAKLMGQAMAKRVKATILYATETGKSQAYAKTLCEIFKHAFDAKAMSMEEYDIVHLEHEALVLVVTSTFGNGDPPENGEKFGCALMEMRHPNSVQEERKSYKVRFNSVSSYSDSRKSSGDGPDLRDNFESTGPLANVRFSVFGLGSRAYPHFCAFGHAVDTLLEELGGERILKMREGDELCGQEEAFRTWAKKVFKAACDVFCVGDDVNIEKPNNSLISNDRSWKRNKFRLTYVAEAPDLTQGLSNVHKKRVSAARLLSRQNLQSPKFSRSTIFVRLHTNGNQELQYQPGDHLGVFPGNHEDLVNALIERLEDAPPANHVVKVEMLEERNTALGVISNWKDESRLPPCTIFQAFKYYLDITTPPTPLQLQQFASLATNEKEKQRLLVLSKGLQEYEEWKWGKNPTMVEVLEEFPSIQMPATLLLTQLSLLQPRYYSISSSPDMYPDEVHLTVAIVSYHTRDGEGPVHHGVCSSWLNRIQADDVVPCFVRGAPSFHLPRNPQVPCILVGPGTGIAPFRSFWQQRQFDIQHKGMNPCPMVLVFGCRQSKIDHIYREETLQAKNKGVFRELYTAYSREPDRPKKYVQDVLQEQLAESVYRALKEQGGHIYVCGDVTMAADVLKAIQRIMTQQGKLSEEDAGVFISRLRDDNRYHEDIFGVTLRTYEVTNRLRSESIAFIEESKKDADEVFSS

Row | NO production as substrate (Nitric oxide synthase 1 [1]) | NO-producing substrate activity (Nitric oxide synthase 3 [2]) | NO production as substrate [3] | IC50 (Nitric oxide synthase 3 [5]) | Compound | IC50 [4] | also measured
1 | Not Active | Not Active | Not Active | – | N/C(=N\CCC[C@H](N)C(=O)O)NCc1c[nH]cn1 | – | –
2 | – | – | – | – | c1c[nH]cn1 [IMIDAZOLE] | 40 µM | –
3 | Not Active | Not Active | Not Active | – | N=C(N)NCc1c[nH]cn1 | – | –
4 | – | – | – | – | N=C(N)NCc1ncc[nH]1 | 138 µM | –
5 | – | – | – | – | c1ccc(-c2ncc[nH]2)cc1 [2-PHENYLIMIDAZOLE] | > 1000 µM | –
6 | Not Active | Not Active | Not Active | – | N=C(N)NCCc1c[nH]cn1 | – | –
7 | – | – | – | 1090 µM | N/C(=N\CCC[C@@H](N)C(=O)O)NCCc1c[nH]cn1 | – | –
8 | – | – | – | 347 µM | N/C(=N\CCC[C@@H](N)C(=O)O)NCc1ncc[nH]1 | – | IC50 (Nitric oxide synthase 1 [6]): 1590 µM
9 | Not Active | Not Active | Not Active | – | N=C(N)NCCc1ncc[nH]1 | – | –
10 | – | – | – | 629 µM | N/C(=N\CCC[C@@H](N)C(=O)O)NCCc1ncc[nH]1 | – | IC50 (Nitric oxide synthase 1 [6]): 1490 µM
